For test [1], the system named is COLR-Ab isolates. Briefly: Broth microdilution MIC determination (CLSI). The format is cell-based, Acinetobacter baumannii. As to the method:
The broth microdilution method, as recommended by the CLSI, was used to determine the MIC values of COL, p-CA, FA, and p-MCA [46]. The serial two-fold dilutions of antimicrobial agents were prepared using 96-well microplates with cation-adjusted Mueller-Hinton Broth (MHB) (CAMHB, Merck KGaA, Darmstadt, Germany). Firstly, an initial concentration of 8192 µg/mL was chosen to determine the MIC values of all compounds against COLR-Ab isolates. […] The bacterial suspension was adjusted to the 0.5 McFarland standard and added to each well (final bacterial concentration: 5 × 10^5 colony forming units [CFU]/mL). Additionally, the microdilution plates included controls for bacterial growth (CAMHB + bacteria) and medium sterility (CAMHB). Microdilution plates were incubated at 35 ± 2 °C for 18–24 h. The MIC values were calculated by comparing the growth densities in the antibiotic-containing wells to those in the control wells used in each test set. Each experiment was conducted in triplicate.
A general note: Dilution methods test growth across graded concentrations, often in twofold steps.

In test [2] the test system is biofilm formation of COLR-Ab isolates. Briefly: Antibiofilm activity, microtiter plate-based crystal violet technique. Type of test: cell-based, Acinetobacter baumannii. The conditions noted are these: all COL doses except 1 μg/mL for COLR-Ab4; COLR-Ab1, 3, 4, 5. As to the method: Following the incubation period, the microtiter plates were gently washed three times with PBS. Subsequently, 200 µL of methanol (99%) was added to each well and left for 15 min. The methanol was then removed from the wells and the plate was left to dry for approximately 30 min, thus completing the fixation process. Then, 200 µL of 0.1% CV solution was added to each well and incubated for 20 min at room temperature. The plates were washed three times with PBS in order to remove the excess stain, and then 150 μL of 95% ethanol was added to the wells and incubated for 20 min. The optical density of the CV-stained biofilm was measured at a wavelength of 575 nm using a Thermo Labsystem Multiscan Spectrum microtiter plate reader (Thermolabsystem, Chantilly, VA, USA). Each experiment was conducted in triplicate.
In order to evaluate the antibiofilm activity of COL, p-CA, FA, and p-MCA, a 96-well microtiter plate-based CV test was carried out, with minor modifications to the methods previously described by Kırmusaoglu (2019) and Haney et al. (2021). Briefly, bacteria were inoculated into MHB medium containing 0.2% glucose and incubated at 37 °C for 16–20 h. The bacterial suspension, adjusted to 0.5 McFarland using the same medium, was prepared to a final concentration of 5 × 10^5 CFU/mL and inoculated into 96-well flat-bottom microtitre plates. […] Wells containing only medium were used as negative controls (MHB), and wells containing only medium and bacteria were used as growth controls. The plates were then incubated overnight at 35 ± 2 °C in a normal atmosphere. Following incubation, CV staining procedures were carried out in a similar manner to Section 4.4.
The antibiofilm index was calculated using the following formula:% Biofilm Mass = (100 × Sample OD575/Growth Control OD575)

For test [3], the system named is COLR-Ab isolates. Briefly: Colistin broth disk elution method. The format is cell-based, Acinetobacter baumannii. Further details: key to Susceptibility category: Resistant; Intermediate; Susceptible. As to the method: (§1) Five COLR-Ab strains isolated from various clinical specimens were obtained between 2016 and 2017 from the Microbiology Department of the Central Laboratory of Akdeniz University Hospital, Antalya, Turkey. All isolates were isolated from tracheal samples obtained from patients hospitalized in the intensive care unit. The stock solutions of A. baumannii strains were cultivated in blood agar (Becton Dickinson, Franklin Lakes, NJ, USA) at 35 ± 2 °C for 18–24 h. Identification of the colonies was confirmed using Matrix-Assisted Laser Desorption/Ionization Time-of-Flight (MALDI-TOF) mass spectroscopy (Bruker Daltonics, Bremen, Germany). […] The automated system was evaluated according to the criteria of the CLSI. The colistin broth disk elution method was used to test COL sensitivity, and all five isolates selected for the study were resistant to COL. E. coli NCTC 13846 COL was used as a quality control strain in broth dilution method to verify the MIC values. The isolates were stored at −80 °C until use and sub-cultured on blood agar for in vitro testing.

Test [4] deals with Escherichia coli NCTC 13846. Briefly: Broth microdilution MIC, quality control strain. The format is cell-based. The conditions noted are these: E. coli NCTC 13846 quality control strain. As to the method:
as §1
The broth microdilution method, as recommended by the CLSI, was used to determine the MIC values of COL, p-CA, FA, and p-MCA [46]. […] The MIC values were calculated by comparing the growth densities in the antibiotic-containing wells to those in the control wells used in each test set. […]

Test [5] has as its system COLR-Ab isolates. Briefly: BD Phoenix100 automated antibiotic susceptibility testing. The format is cell-based, Acinetobacter baumannii. Also on record: key to Susceptibility category: Resistant; Intermediate; Susceptible. The conditions noted are these: for MIC: Acinetobacter baumannii; for Susceptibility category: CLSI criteria. As to the method:
as §1, with “The colistin broth disk elution method was used to test COL sensitivity, and all five isolates selected for the study were resistant to COL.” left out

The test system of a further test is A. baumannii isolates. The conditions noted are these: A. baumannii isolates, combination with COL; cited from earlier work.
The mark [6] stands for this setting: COLR-Ab1, colistin broth disk elution.
[7] abbreviates: COLR-Ab2, colistin broth disk elution.
Setting [8] is: COLR-Ab3, colistin broth disk elution.
Where [9] appears, read: COLR-Ab4, colistin broth disk elution.
Where [10] appears, read: COLR-Ab5, colistin broth disk elution.
[11] abbreviates: COLR-Ab1, BD Phoenix 100 system.
Setting [12] is: COLR-Ab2, BD Phoenix 100 system.
[13] abbreviates: COLR-Ab3, BD Phoenix 100 system.
The mark [14] stands for this setting: COLR-Ab4, BD Phoenix 100 system.
[15] abbreviates: COLR-Ab5, BD Phoenix 100 system.

Converted amounts (≈) assume the structure as drawn.

One may read the MIC as the lowest concentration that inhibits growth of the organism.

In the case of colistin, the minimal inhibitory concentration (MIC) is on record as 32 µg/mL in the test with COLR-Ab isolates [1] (COLR-Ab1); 64 µg/mL against COLR-Ab isolates [1] (COLR-Ab2); 64 µg/mL in the test with COLR-Ab isolates [1] (COLR-Ab3); 128 µg/mL with COLR-Ab isolates [1] (COLR-Ab4); 64 µg/mL against COLR-Ab isolates [1] (COLR-Ab5); > 4 µg/mL in the test on COLR-Ab isolates [3] (setting [6]). Moreover, the MIC against COLR-Ab isolates [3] (setting [7]) was > 4 µg/mL; against COLR-Ab isolates [3] (setting [8]), > 4 µg/mL; against COLR-Ab isolates [3] (setting [9]) it was > 4 µg/mL; in the test with COLR-Ab isolates [3] (setting [10]) it was > 4 µg/mL; in test [4] it was 4 µg/mL. The “Inhibition of biofilm formation” value in test [2] is reported as 19.7–75.2%. Moreover, the Susceptibility category entry in the test on COLR-Ab isolates [3] (setting [6]), in the test with COLR-Ab isolates [3] (setting [7]), with COLR-Ab isolates [3] (setting [8]), in the test on COLR-Ab isolates [3] (setting [9]) and with COLR-Ab isolates [3] (setting [10]) was “R” throughout.
Consider `NCC[C@H](O)C(=O)N[C@@H]1C[C@H](N)[C@@H](O[C@H]2O[C@H](CN)[C@@H](O)[C@H](O)[C@H]2O)[C@H](O)[C@H]1O[C@H]1O[C@H](CO)[C@@H](O)[C@H](N)[C@H]1O` [AMK, Amikacin], for which the minimum inhibitory concentration (MIC) is ≤ 4 µg/mL against COLR-Ab isolates [5] (setting [11]); > 16 µg/mL against COLR-Ab isolates [5] (setting [12]); > 16 µg/mL against COLR-Ab isolates [5] (setting [13]); > 16 µg/mL against COLR-Ab isolates [5] (setting [14]); > 16 µg/mL against COLR-Ab isolates [5] (setting [15]). Further, the Susceptibility category result is listed as “S” in the test with COLR-Ab isolates [5] (setting [11]); “R” in the test with COLR-Ab isolates [5] (setting [12]); “R” in the test with COLR-Ab isolates [5] (setting [13]); “R” in the test with COLR-Ab isolates [5] (setting [14]); “R” with COLR-Ab isolates [5] (setting [15]).
As for `O=C(O)c1cc(O)c(O)c(O)c1` [gallic acid], in the test with A. baumannii isolates, the “Combination effect with COL in words” value was “Synergistic activity”.
`O=C(O)c1ccc(O)c(O)c1` [protocatechuic acid]: in the test on A. baumannii isolates, the “Combination effect with COL in words” value is reported as “Synergistic activity”.
In the case of `C[C@@H](O)[C@H]1C(=O)N2C(C(=O)O)=C(S[C@@H]3CN[C@H](C(=O)N(C)C)C3)[C@H](C)[C@H]12` [MEM, Meropenem], the minimum inhibitory concentration (MIC) with COLR-Ab isolates [5] (setting [11]) was ≤ 0.125 µg/mL; with COLR-Ab isolates [5] (setting [12]), > 8 µg/mL; with COLR-Ab isolates [5] (setting [13]), > 8 µg/mL; against COLR-Ab isolates [5] (setting [14]), > 8 µg/mL; with COLR-Ab isolates [5] (setting [15]), > 8 µg/mL. Also, the Susceptibility category entry is “S” in the test with COLR-Ab isolates [5] (setting [11]); “R” with COLR-Ab isolates [5] (setting [12]); “R” in the test on COLR-Ab isolates [5] (setting [13]); “R” in the test with COLR-Ab isolates [5] (setting [14]); “R” with COLR-Ab isolates [5] (setting [15]).
As for `CCN[C@@H]1C[C@H](N)[C@@H](O[C@H]2OC(CN)=CC[C@H]2N)[C@H](O)[C@H]1O[C@H]1OC[C@](C)(O)[C@H](NC)[C@H]1O` [NET, Netilmicin], the MIC with COLR-Ab isolates [5] (setting [11]) was 1 µg/mL (≈ 2.1 µM); against COLR-Ab isolates [5] (setting [12]) it was > 4 µg/mL; in the test with COLR-Ab isolates [5] (setting [13]) it was > 4 µg/mL; in the test on COLR-Ab isolates [5] (setting [14]), > 4 µg/mL; against COLR-Ab isolates [5] (setting [15]), > 4 µg/mL. Further, the Susceptibility category result with COLR-Ab isolates [5] (setting [11]) is “S”; in the test with COLR-Ab isolates [5] (setting [12]), “R”; in the test on COLR-Ab isolates [5] (setting [13]) it was “R”; in the test with COLR-Ab isolates [5] (setting [14]), “R”; with COLR-Ab isolates [5] (setting [15]), “R”.
Take `O=C(O)/C=C/c1ccc(O)c(O)c1` [caffeic acid]: the “Combination effect with COL in words” value in the test with A. baumannii isolates is on record as “Synergistic activity”.
Consider `CNC(C)C1CCC(N)C(OC2C(N)CC(N)C(OC3OCC(C)(O)C(NC)C3O)C2O)O1` (stereo not shown) [GEN, Gentamicin], for which the minimal inhibitory concentration (MIC) was ≤ 1 µg/mL with COLR-Ab isolates [5] (setting [11]); > 4 µg/mL with COLR-Ab isolates [5] (setting [12]); > 4 µg/mL in the test on COLR-Ab isolates [5] (setting [13]); > 4 µg/mL in the test on COLR-Ab isolates [5] (setting [14]); > 4 µg/mL in the test on COLR-Ab isolates [5] (setting [15]). Further, the Susceptibility category entry with COLR-Ab isolates [5] (setting [11]) is given as “S”; in the test with COLR-Ab isolates [5] (setting [12]), “R”; with COLR-Ab isolates [5] (setting [13]), “R”; in the test on COLR-Ab isolates [5] (setting [14]) it was “R”; with COLR-Ab isolates [5] (setting [15]), “R”.
Consider `C[C@@H](O)[C@H]1C(=O)N2C(C(=O)O)=C(SCCN=CN)C[C@H]12` [IPM, Imipenem], for which the MIC against COLR-Ab isolates [5] (setting [11]) was ≤ 0.25 µg/mL; against COLR-Ab isolates [5] (setting [12]), > 8 µg/mL; against COLR-Ab isolates [5] (setting [13]), 4 µg/mL (≈ 13.4 µM); in the test with COLR-Ab isolates [5] (setting [14]), > 8 µg/mL; with COLR-Ab isolates [5] (setting [15]) it was > 8 µg/mL. Moreover, the Susceptibility category entry in the test on COLR-Ab isolates [5] (setting [11]) was “S”; in the test on COLR-Ab isolates [5] (setting [12]), “R”; in the test with COLR-Ab isolates [5] (setting [13]) it was “I”; in the test on COLR-Ab isolates [5] (setting [14]), “R”; in the test on COLR-Ab isolates [5] (setting [15]), “R”.

(Values after article PMC11761228, “Cinnamic Acid Compounds (p-Coumaric, Ferulic, and p-Methoxycinnamic Acid) as Effective Antibacterial Agents Against Colistin-Resistant Acinetobacter baumannii” (Antibiotics, 2025).)
